Here are results for three compounds from patent US3940482A, “Solubilization of the zinc salt of 1-hydroxy-2-pyridinethione” (priority 1973, dated 1976).

Series [1] in a line: Solubilization of zinc pyridinethione in water by DETA, DGA, PEI-1000 (visual observations). The class given is physicochemical. The procedure: H2 O. This 48.5 g. slurry is stirred for 1 minute. […] Also, to 0.75 g. […] H2 O. The 45.50 g. slurry is stirred for 1 minute.
**A.E. means active ingredients.

A short description of series [2]: Effect of chelating/sequestering agent on biocidal activity of zinc pyridinethione. As to conditions: aliphatic polyamine, up to two-fold excess.
Series [3] is described as follows: Solubilization of zinc pyridinethione in amphoteric shampoo base (visual observations).
A short description of series [4]: Solubilization of zinc pyridinethione in anionic shampoo base (visual observations). The series is classed as physicochemical.
For series [5] the following is noted: less than one part EDTA per part pyridinethione salt shows this effect; cited from earlier work.

Take `NCCNCCN` [DETA, diethylene triamine]: the “pH at which solution starts clouding up” value in series [1] (pH adjusted downward with HCl) is about 9.2. Also, in series [1] (pH adjusted downward with HCl, pH 8.8), the “precipitation at pH 8.8” value is about 50%. Further, in series [2], the “effect on antimicrobial activity of zinc pyridinethione” value is on record as “does not reduce the antimicrobial activity”. In series [3] (pH adjustment with HCl, smoky color at this pH), the “pH down to which shampoo remains clear” value is about 9.3. For the same compound, the “Visual observation at pH 9.2” value in series [4] (anionic shampoo, pH decreased with HCl to 9.2) was “slightly cloudy”.
Take `NCCOCCO` [DGA, diglycolamine]: in series [1], the “Solubility of zinc pyridinethione on stirring at room temperature for 3 minutes” value is “Less than 10%”, the “Visual observation: hot plate heating until 110°F.” value was “No greater solubility. Zinc pyridinethione quickly settles” and the “effectiveness as solubilizing agent for heavy metal salts of pyridinethione” value was “ineffective”. In series [1] (1.5% zinc pyridinethione, 3.0% solubilizer in water), the “pH of solution unadjusted” value is 11.2. The same compound had a pH - unadjusted in series [3] (1.5% zinc pyridinethione, 3.0% solubilizer) of 9.6. Moreover, the Visual - unadjusted entry in series [4] is “Cloudy shampoo”. In series [4] (anionic shampoo, 1.5% zinc pyridinethione, 3.0% solubilizer), this compound yielded a pH - unadjusted of 9.0. Further, the “zinc pyridinethione soluble (visual, unadjusted pH)” value in series [4] (anionic shampoo, unadjusted pH) is under 10%.
On to `O=C(O)CN(CCN(CC(=O)O)CC(=O)O)CC(=O)O` [ethylenediamine tetraacetic acid], for which the “effect on biocidal activity of zinc pyridinethione” value in series [5] was “very deleterious effect”.
